pIC50: −log10 of the molar value.
Target: cofactor-independent phosphoglycerate mutase (iPGM), Brugia malayi / Caenorhabditis elegans
Experiment: nematode iPGM enzyme inhibitors, biochemical, cofactor-independent, HTS (AID 743230)
Conditions: recombinant nematode iPGM, coupled NADH absorbance decline

SMILES | pIC50
Nc1cc2cccnc2c2ncccc12 | 4.42
CCc1cc2c[n+](C3CCCCC3)sc2s1 | 4.98

Reference: PubChem BioAssay AID743230
